Test results from patent publication US8940913B2, “Herbicides” (Syngenta Crop Protection, LLC, priority 2007, dated 2015).

Assays:
Assay type in all cases: in vivo
[1] = tested on: Alopecurus myosuroides (ALOMY); assay: Pre-emergence herbicidal activity, glasshouse pot test; settings: 480 h, rate 250 g/ha, evaluated 20 days later, 100=total damage to plant, 0=no damage to plant
Procedure: (§1) Monocotyledonous and dicotyledonous test plants were sown in standard soil in pots. After cultivation for one day (pre-emergence) or after 10 days cultivation (post-emergence) under controlled conditions in a glasshouse, the plants were sprayed with an aqueous spray solution derived from the formulation of the technical active ingredient in 0.6 ml acetone and 45 ml formulation solution containing 10.6% Emulsogen EL (Registry number 61791-12-6), 42.2% N-methylpyrrolidone, 42.2% dipropylene glycol monomethyl ether (Registry number 34590-94-8) and 0.2% X-77 (Registry number 11097-66-8). The test plants were then grown in a greenhouse under optimum conditions until, 15 days later for post-emergence and 20 days for pre-emergence, the test was evaluated (100=total damage to plant; 0=no damage to plant). Test Plants: Alopecurus myosuroides (ALOMY), Avena fatua (AVEFA), Lolium perenne (LOLPE), Setaria faberi (SETFA), Digitaria sanguinalis (DIGSA), Echinochloa crus-galli (ECHCG)

Avena fatua (AVEFA) [2] = assay: as above; settings: 480 h, rate 250 g/ha, evaluated 20 days later, 100=total damage to plant, 0=no damage to plant
Procedure: as §1

[3] = tested on: Digitaria sanguinalis (DIGSA); assay: as above; settings: 480 h, rate 250 g/ha, evaluated 20 days later, 100=total damage to plant, 0=no damage to plant
Procedure: as §1

[4] = tested on: Echinochloa crus-galli (ECHCG); assay: as above; settings: 480 h, rate 250 g/ha, evaluated 20 days later, 100=total damage to plant, 0=no damage to plant
Procedure: as §1

Lolium perenne (LOLPE) [5] = assay: as above; settings: 480 h, rate 250 g/ha, evaluated 20 days later, 100=total damage to plant, 0=no damage to plant
Procedure: as §1

Setaria faberi (SETFA) [6] = assay: as above; settings: 480 h, rate 250 g/ha, evaluated 20 days later, 100=total damage to plant, 0=no damage to plant
Procedure: as §1

[7] = tested on: Alopecurus myosuroides (ALOMY); assay: Post-emergence herbicidal activity, glasshouse pot test; settings: 360 h, rate 125 g/ha, evaluated 15 days later, 100=total damage to plant, 0=no damage to plant
Procedure: as §1

Avena fatua (AVEFA) [8] = assay: as above; settings: 360 h, rate 125 g/ha, evaluated 15 days later, 100=total damage to plant, 0=no damage to plant
Procedure: as §1

[9] = tested on: Digitaria sanguinalis (DIGSA); assay: as above; settings: 360 h, rate 125 g/ha, evaluated 15 days later, 100=total damage to plant, 0=no damage to plant
Procedure: as §1

[10] = tested on: Echinochloa crus-galli (ECHCG); assay: as above; settings: 360 h, rate 125 g/ha, evaluated 15 days later, 100=total damage to plant, 0=no damage to plant
Procedure: as §1

Lolium perenne (LOLPE) [11] = assay: as above; settings: 360 h, rate 125 g/ha, evaluated 15 days later, 100=total damage to plant, 0=no damage to plant
Procedure: as §1

Setaria faberi (SETFA) [12] = assay: as above; settings: 360 h, rate 125 g/ha, evaluated 15 days later, 100=total damage to plant, 0=no damage to plant
Procedure: as §1

`Cc1cc(-c2ccccc2)cc(C)c1C1C(=O)[C@H]2[C@@H]3CC[C@@](C)(O3)[C@H]2C1=O` (stereo partly drawn) [Compound T8] showed a pest or weed control at 250 g/ha [1] of 90%, a pest or weed control at 250 g/ha (Avena fatua (AVEFA) [2]) of 50% and a pest or weed control at 250 g/ha [3] of 100%. For the same compound, the pest or weed control at 250 g/ha [4] was 100%, the pest or weed control at 250 g/ha (Lolium perenne (LOLPE) [5]) was 80% and the pest or weed control at 250 g/ha (Setaria faberi (SETFA) [6]) was 100%. For the same compound, the pest or weed control at 125 g/ha [7] was 100%, the pest or weed control at 125 g/ha (Avena fatua (AVEFA) [8]) was 90% and the pest or weed control at 125 g/ha [9] was 100%. It also gave a pest or weed control at 125 g/ha [10] of 100%, a pest or weed control at 125 g/ha (Lolium perenne (LOLPE) [11]) of 70% and a pest or weed control at 125 g/ha (Setaria faberi (SETFA) [12]) of 100%.

`CCc1ccc(-c2ccc(Cl)cc2C)cc1C1=C(O)[C@H]2[C@@H](C1=O)[C@]1(C)CC[C@@]2(C)O1` [Compound T28] showed a pest or weed control at 250 g/ha [1] of 0%, a pest or weed control at 250 g/ha (Avena fatua (AVEFA) [2]) of 30% and a pest or weed control at 250 g/ha [3] of 30%. It also gave a pest or weed control at 250 g/ha [4] of 0%, a pest or weed control at 250 g/ha (Lolium perenne (LOLPE) [5]) of 40% and a pest or weed control at 250 g/ha (Setaria faberi (SETFA) [6]) of 20%. It also gave a pest or weed control at 125 g/ha [7] of 90%, a pest or weed control at 125 g/ha (Avena fatua (AVEFA) [8]) of 90% and a pest or weed control at 125 g/ha [9] of 70%. It also gave a pest or weed control at 125 g/ha [10] of 100%, a pest or weed control at 125 g/ha (Lolium perenne (LOLPE) [11]) of 50% and a pest or weed control at 125 g/ha (Setaria faberi (SETFA) [12]) of 100%.

`Cc1cc(-c2ccccc2)cc(C)c1C1C(=O)[C@@H]2[C@H](C1=O)[C@H]1CC[C@@H]2O1` (mixture of isomers) [Compound T6, (1RS,2SR,6RS,7SR)-4-(3,5-dimethylbiphen-4-yl)-10-oxa-tricyclo[5.2.1.0^2,6]decane-3,5-dione] gave a pest or weed control at 250 g/ha [1] of 50%, a pest or weed control at 250 g/ha (Avena fatua (AVEFA) [2]) of 0% and a pest or weed control at 250 g/ha [3] of 80%. The pest or weed control at 250 g/ha [4] was 100%, the pest or weed control at 250 g/ha (Lolium perenne (LOLPE) [5]) was 70% and the pest or weed control at 250 g/ha (Setaria faberi (SETFA) [6]) was 100%. For the same compound, the pest or weed control at 125 g/ha [7] was 80%, the pest or weed control at 125 g/ha (Avena fatua (AVEFA) [8]) was 30% and the pest or weed control at 125 g/ha [9] was 30%. It also gave a pest or weed control at 125 g/ha [10] of 70%, a pest or weed control at 125 g/ha (Lolium perenne (LOLPE) [11]) of 50% and a pest or weed control at 125 g/ha (Setaria faberi (SETFA) [12]) of 60%.

`CCc1cc(-c2ccc(C)cc2)cc(CC)c1C1C(=O)[C@@H]2[C@H](C1=O)[C@H]1CC[C@@H]2O1` (stereo partly drawn) [Compound T9] showed a pest or weed control at 250 g/ha [1] of 70%, a pest or weed control at 250 g/ha (Avena fatua (AVEFA) [2]) of 50% and a pest or weed control at 250 g/ha [3] of 60%. It also gave a pest or weed control at 250 g/ha [4] of 100%, a pest or weed control at 250 g/ha (Lolium perenne (LOLPE) [5]) of 80% and a pest or weed control at 250 g/ha (Setaria faberi (SETFA) [6]) of 50%. For the same compound, the pest or weed control at 125 g/ha [7] was 80%, the pest or weed control at 125 g/ha (Avena fatua (AVEFA) [8]) was 20% and the pest or weed control at 125 g/ha [9] was 80%. The pest or weed control at 125 g/ha [10] was 100%, the pest or weed control at 125 g/ha (Lolium perenne (LOLPE) [11]) was 80% and the pest or weed control at 125 g/ha (Setaria faberi (SETFA) [12]) was 70%.

Compound `CCc1ccc(-c2ccc(Cl)c(C(F)(F)F)c2)cc1C1=C(O)[C@H]2[C@@H](C1=O)[C@]1(C)CC[C@@]2(C)O1` [Compound T31] has a pest or weed control at 250 g/ha [1] of 0%, a pest or weed control at 250 g/ha (Avena fatua (AVEFA) [2]) of 50% and a pest or weed control at 250 g/ha [3] of 30%. The pest or weed control at 250 g/ha [4] was 60%, the pest or weed control at 250 g/ha (Lolium perenne (LOLPE) [5]) was 20% and the pest or weed control at 250 g/ha (Setaria faberi (SETFA) [6]) was 10%. It also gave a pest or weed control at 125 g/ha [7] of 90%, a pest or weed control at 125 g/ha (Avena fatua (AVEFA) [8]) of 80% and a pest or weed control at 125 g/ha [9] of 100%. It also gave a pest or weed control at 125 g/ha [10] of 100%, a pest or weed control at 125 g/ha (Lolium perenne (LOLPE) [11]) of 40% and a pest or weed control at 125 g/ha (Setaria faberi (SETFA) [12]) of 100%.

`Cc1cc(-c2ccccc2)cc(C)c1C1=C(OC(=O)C(C)C)[C@H]2[C@@H](C1=O)[C@@H]1CC[C@H]2O1` [Compound P2] gave a pest or weed control at 250 g/ha [1] of 100%, a pest or weed control at 250 g/ha (Avena fatua (AVEFA) [2]) of 70% and a pest or weed control at 250 g/ha [3] of 100%. It also gave a pest or weed control at 250 g/ha [4] of 80%, a pest or weed control at 250 g/ha (Lolium perenne (LOLPE) [5]) of 90% and a pest or weed control at 250 g/ha (Setaria faberi (SETFA) [6]) of 100%. For the same compound, the pest or weed control at 125 g/ha [7] was 100%, the pest or weed control at 125 g/ha (Avena fatua (AVEFA) [8]) was 80% and the pest or weed control at 125 g/ha [9] was 90%. The pest or weed control at 125 g/ha [10] was 100%, the pest or weed control at 125 g/ha (Lolium perenne (LOLPE) [11]) was 90% and the pest or weed control at 125 g/ha (Setaria faberi (SETFA) [12]) was 100%.

For `CCc1ccc(-c2ccc(Cl)c(F)c2)cc1C1=C(O)[C@H]2[C@@H](C1=O)[C@]1(C)CC[C@@]2(C)O1` [Compound T33], the pest or weed control at 250 g/ha [1] was 20%, the pest or weed control at 250 g/ha (Avena fatua (AVEFA) [2]) was 0% and the pest or weed control at 250 g/ha [3] was 70%. It also gave a pest or weed control at 250 g/ha [4] of 70%, a pest or weed control at 250 g/ha (Lolium perenne (LOLPE) [5]) of 50% and a pest or weed control at 250 g/ha (Setaria faberi (SETFA) [6]) of 80%. For the same compound, the pest or weed control at 125 g/ha [7] was 100%, the pest or weed control at 125 g/ha (Avena fatua (AVEFA) [8]) was 100% and the pest or weed control at 125 g/ha [9] was 100%. It also gave a pest or weed control at 125 g/ha [10] of 100%, a pest or weed control at 125 g/ha (Lolium perenne (LOLPE) [11]) of 80% and a pest or weed control at 125 g/ha (Setaria faberi (SETFA) [12]) of 100%.
